We go through 74 compounds from PubChem BioAssay AID179 (DTP/NCI, 2004).

The test system of this experiment is CEM cells HIV-1 protection, formazan growth assay. Briefly: NCI AIDS Antiviral Assay. The following applies: for IC50: measured here: growth of uninfected CEM cells. In a few lines:
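Human CEM cells, uninfected and HIV-1-infected, received five drug concentrations, and growth was read by soluble formazan assay. Compounds giving at least 50% protection were retested; reproducible 100% protection defined confirmed active.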

Values joined by “and” are separate entries in the source; they are usually repeats but may differ in a detail not shown here. Equal entries are not always repeated. Active and inactive are the calls of the source.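 Rule for the calls: active = compounds giving half or more protection of infected cells from virus-caused growth loss, again on retest; inactive = the rest.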

Turning to `c1ccc([P+](Cc2nc3ccccc3[nH]2)(c2ccccc2)c2ccccc2)cc1`, the EC50 is over 200 µM; the IC50 was 38.9 µM and 46.8 µM. As to `Cc1occc1C(=S)Nc1ccc(Cl)c(C(=O)OC2CCCCC2)c1`, the EC50 is 0.012 µM and the IC50 turned out to be 7.24 µM. The corresponding values for `CCOC(=O)c1[nH]n(-c2ccccc2)c(=O)c1C=NC(C)=S` are over 200 µM and over 100 µM. Regarding `CC[C@@H]1CC2CN3CCc4c([nH]c5cc(OC)c(OC)cc45)C(C(=O)OC)(C2)C13` (stereo not given in full), the outcome was inactive. For the compound `NC(=O)NC(=O)c1cccs1`, the EC50 was over 200 µM and the concentration for half-maximal inhibition (IC50) was over 200 µM. With `Cc1ccc2cccc(-c3cccc4ccccc34)c2n1`, the EC50 is over 200 µM and the concentration for half-maximal inhibition (IC50) was determined as 10.5 µM.

Regarding `C[C@@]1(OC(=O)c2cc([N+](=O)[O-])cc([N+](=O)[O-])c2)C[C@@H]2CCCC[C@@H]21`, the outcome was inactive. `CCCCCCC/C=N/[N-]C(=O)c1ccncc1.CCCCCCC/C=N\[N-]C(=O)c1ccncc1.[Ni+2]`: the EC50 was over 100 µM and the IC50 was 64.6 µM. For `CCCCCCCCCCCCCCCCOC1OC(COC(C)=O)C(OC(C)=O)C(OC(C)=O)C1OC(C)=O` (stereo not given), the EC50 was over 12.6 µM and the IC50 was over 12.6 µM.

With `CCOP(=O)(OCC)/C(C#N)=C/c1cc(OC)ccc1OC`, the EC50 was over 398 µM and the half-maximal inhibitory concentration (IC50) worked out at 24 µM. On to `C(=N\NC1=NCCCN1)/c1ccc(-c2cn3cc(/C=N/NC4=NCCCN4)ccc3n2)cc1`, for which the EC50 is over 100 µM and the IC50 was determined as 18.6 µM. Consider `CCn1c(N)c(N=O)c(=O)[nH]c1=O`, for which the EC50 was over 200 µM and the half-maximal inhibitory concentration (IC50) is over 200 µM.

For the compound `CC(O)C1OC(O)C2OC(C)(C)OC12` (stereo not given), the EC50 is over 200 µM and the concentration for half-maximal inhibition (IC50) is over 200 µM. Take `COC(=O)N/N=C(\C)C(CN(C)C)C(c1ccccc1)c1c(O)c2ccccc2oc1=O` (stereo not given): the EC50 is over 28.8 µM and the IC50 is over 28.8 µM. For the compound `CC1CNC2(c3ccccc3)CSC=C(c3ccccc3)N12` (stereo not given), the EC50 was over 200 µM and the IC50 worked out at 117 µM.

Consider `O=C1NC2(CCN(Cc3ccccc3)CC2)Oc2ccccc21`, for which the EC50 was over 200 µM and the IC50 is over 200 µM. `CSC1=N/C(=C\c2ccc(Cl)cc2)C(=O)N1CN1CCOCC1`: the EC50 was over 200 µM and the IC50 came to 33.1 µM. Regarding `O=C1C(=Cc2cccc(F)c2)C(=O)c2ccccc21`, the EC50 is over 20.9 µM and the IC50 is over 20.9 µM. On to `CC(=O)OC12c3ccccc3-c3ccccc3C1C(C(=O)O)C2(Cl)C(=O)O` (stereo not given), for which the EC50 is over 646 µM and the IC50 came to 355 µM. The corresponding values for `COc1cnnc2ccccc12` are over 676 µM and 603 µM. As for `COC(=S)SSC(=S)NCCN(CCNC(=S)SSC(=S)OC)C(=S)SSC(=S)OC`, the EC50 was over 257 µM and the IC50 worked out at 209 µM. `Oc1cc2c(cc1C(c1cc3c(cc1O)OCO3)c1cc3c(cc1O)OCO3)OCO2`: the EC50 is over 117 µM and the IC50 was 22.4 µM. Turning to `CC(C)(NC(=O)OCc1ccccc1)C(=O)OC(=O)C(C)(C)NC(=O)OCc1ccccc1`, the EC50 was over 200 µM and the half-maximal inhibitory concentration (IC50) is over 200 µM. `C=C(Br)CNCC(=C)Br`: the EC50 is over 200 µM and the IC50 stood at 129 µM.

In the case of `COC1CC(OC2C(C)OC(OC3C(C)OC(OC4C(O)CC(O[C@H]5CC[C@@]6(C)C(=CC[C@]7(O)[C@@H]6C[C@@H](OC(C)=O)[C@@]6(C)[C@]7(O)CC[C@@]6(O)C(C)=O)C5)OC4C)CC3OC)CC2OC)OC(C)C1O` (stereo not given in full), the EC50 is over 200 µM and the IC50 is over 200 µM. Regarding `Oc1ccc2c(c1)CC[N+]1=C2CCC2CCCC21` (stereo not given), the EC50 is over 209 µM and the IC50 is over 209 µM.

On to `CN1C(=O)N(C)C(O)C(Cl)(Br)C1=O` (stereo not given), for which the EC50 was over 200 µM and the half-inhibitory concentration (IC50) is over 200 µM. As for `C=C(C)CCC1C=[N+]([O-])OC(C)(C)C1(C)C` (stereo not given), the EC50 is over 200 µM and the concentration for half-maximal inhibition (IC50) was 107 µM. On to `CC(=O)OCc1cn(S(=O)(=O)c2ccc(C)cc2)cn1`, for which the EC50 was over 200 µM and the 50% inhibitory concentration (IC50) is 24 µM.

With `O=C(CC(=O)c1ccccc1O)c1ccccc1`, the EC50 is over 30.2 µM and the IC50 is over 30.2 µM. For the compound `C=CC1(c2ccc3ccccc3c2)OCC(CC)(CC)CO1`, the EC50 is over 200 µM and the 50% inhibitory concentration (IC50) is 79.4 µM. `C=C(C)[C@@H]1CCC2=C[C@@H](OC2=O)[C@@H](C(=C)C)C2=CC(C(=O)O)=C(C1)O2`: the EC50 is over 200 µM and the half-maximal inhibitory concentration (IC50) turned out to be 91.2 µM.

On to `Cc1cccc(CP(Cc2cccc(C)c2)CC2(Cp3c4ccccc4c4ccccc43)COC2)c1`, for which the EC50 was over 2 µM and the IC50 is 0.257 µM. With `CCOC(=O)N1CC2(C(=O)OC)C=CC1C(C(=O)OC)C2` (stereo not given), the EC50 is over 200 µM and the concentration for half-maximal inhibition (IC50) is over 200 µM.

For `CCCNC(=O)N(CCC)S(=O)(=O)c1ccc(Cl)cc1`, the result was inactive. As for `COC(=O)c1c2c(cc3c1CC1(Cc4ccc(C(C)=O)cc4C1)C3)CCC2` (stereo not given), the EC50 was over 200 µM and the concentration for half-maximal inhibition (IC50) is over 200 µM. With `CCc1c(O)n(Cc2nc3ccccc3[nH]2)c(=S)n(-c2ccccc2)c1=O`, the EC50 was over 200 µM and the 50% inhibitory concentration (IC50) is over 200 µM. For the compound `NC1CC2C3CCC2C1C3=O` (stereo not given), the EC50 is over 200 µM and the IC50 was over 200 µM. `O=c1ccn2n1CCCCC2`: the EC50 was over 200 µM and the IC50 was over 200 µM. Consider `Cc1[nH]c(=O)[nH]c1C(=O)c1ccc(-n2ccnc2)cc1`, for which the EC50 is over 14.1 µM and the concentration for half-maximal inhibition (IC50) is over 14.1 µM.

`O=C1c2ccccc2C(=O)c2c1ccc1c2N=C(c2ccc(Br)cc2)CC(c2cccc3ccccc23)N1` (stereo not given): the EC50 was over 64.6 µM and the IC50 was over 64.6 µM. In the case of `Cc1cc(CO)c(O)c(C(=O)CC2CC(=O)NC(=O)C2)c1`, the EC50 is over 200 µM and the IC50 worked out at 57.5 µM.

As to `O=C1C(Cl)=C(Cl)C(=O)N1c1ccccc1Cl`, the outcome was inactive. For the compound `Clc1ccccc1CSc1cnnc2ccccc12`, the EC50 was over 93.3 µM and the IC50 was found to be 67.6 µM. Regarding `COc1cc2c(cc1OC)C(CC(=O)NN=C(C)C)NCC2` (stereo not given), the EC50 was over 813 µM and the half-inhibitory concentration (IC50) was over 813 µM. On to `O=c1onc(-c2ccccc2)c2ccccc12`, for which the EC50 is over 162 µM and the IC50 was over 162 µM. Turning to `CCCCCCC1CC(=O)C1(Cl)Cl` (stereo not given), the result was inactive. As to `O=C1C=C(Nc2ccccc2C(=O)c2ccccc2)c2ccccc2C1=O`, the EC50 was over 2.95 µM and the concentration for half-maximal inhibition (IC50) is over 2.95 µM. Turning to `CCCNC(=O)C1C(=O)C(=O)N(CCC)C1=O` (stereo not given), the result was inactive. Consider `CCCCc1c2c(nc3c1CCCC3O)/C(=C/c1ccccc1)CCC2` (stereo not given), for which the EC50 was over 6.31 µM and the IC50 was over 6.31 µM.

Take `COc1ccc(NC2Oc3cc4c(cc3C(c3cccc(OC)c3OC)C2C)OCO4)cc1` (stereo not given): the EC50 is over 200 µM and the IC50 turned out to be 1.95 µM. Regarding `CC(C)(C)c1cc(Nc2ccc([N+](=O)[O-])cc2[N+](=O)[O-])cc(C(C)(C)C)c1O`, the EC50 was over 13.5 µM and the half-maximal inhibitory concentration (IC50) is over 13.5 µM. Take `CC(=O)C(N)=Nc1ccccc1`: the EC50 is over 1550 µM and the IC50 was over 1550 µM. Turning to `CN(C)CCOc1ccc(/C(=C(/CCCl)c2ccccc2)c2ccccc2)cc1`, the EC50 is over 43.7 µM and the IC50 worked out at 0.38 µM. For `Cc1cc(OP2(=O)NCc3ccncc3O2)ccc1Cl` (stereo not given), the EC50 is over 200 µM and the IC50 is over 200 µM.

In the case of `COc1ccc(C(=O)N2CCN(c3ccc4c(c3)OCC(=O)N4)CC2)cc1OC`, the EC50 is over 200 µM and the IC50 is over 200 µM.

With `CCOC(=O)c1ccc(CS(=O)(=O)c2ccc(C)cc2)c([N+](=O)[O-])c1`, the EC50 was over 100 µM and the IC50 is over 100 µM.

Take `Cc1nc(Nc2ccccc2[N+](=O)[O-])sc1C(=O)CC(=O)C(=O)Nc1c(C(C)C)cccc1C(C)C`: the EC50 is over 200 µM and the IC50 was over 200 µM. On to `Cc1oncc1NC1=CC(=O)C(=O)c2ccccc21`, for which the EC50 is over 200 µM and the half-maximal inhibitory concentration (IC50) was determined as 8.51 µM. The matching figures for `O=C(c1ccco1)N(C(=S)OCc1ccccn1)c1ccccc1`: over 200 µM and 105 µM.

`N#Cc1ccccc1CSc1ncnc2nc[nH]c12`: the EC50 was 12.3 µM and the IC50 was found to be 105 µM.

Take `Cc1cc(S(=O)(=O)Nc2n[nH]c(-c3ccccn3)n2)c(S)cc1Cl`: the EC50 was over 200 µM and the concentration for half-maximal inhibition (IC50) was determined as 4.17 µM.

In the case of `COC(=O)C(C)(C)N=CN(C)C`, the EC50 is over 1450 µM and the half-inhibitory concentration (IC50) was over 1450 µM.

With `Cc1ccc(S(=O)(=O)SS(=O)(=O)c2ccc(C)cc2)cc1`, the EC50 was 13.8 µM and the concentration for half-maximal inhibition (IC50) was 52.5 µM. Regarding `Cc1ccnc(NC(=O)Nc2ccc(F)c([N+](=O)[O-])c2)c1`, the EC50 is over 200 µM and the IC50 is over 200 µM. Regarding `Cc1ccc(S(=O)(=O)c2c(N)c3nccn3c3nc4ccccc4nc23)cc1`, the EC50 was over 25.7 µM and the IC50 is over 25.7 µM.

As for `COc1ccc(C2CC(=O)CC(c3ccc(OC)cc3)C23C(=O)NC(=O)NC3=O)cc1` (stereo not given), the EC50 is over 100 µM and the IC50 was 40.7 µM.

As for `CC(NS(=O)(=O)c1ccc([N+](=O)[O-])cc1)C(=O)O` (stereo not given), the result was inactive. Consider `O=C(NNc1ccnc2cc(Cl)ccc12)/C(=C/c1ccc2c(c1)OCO2)NC(=O)c1ccccc1`, for which the EC50 is over 100 µM and the IC50 came out at 8.51 µM. In the case of `O=C(O)c1[nH]c2c(=O)[nH]c(=O)[nH]c2c1Br`, the result was inactive. `O=C(O)CCSc1nnc(COc2ccc(Cl)cc2)n1-c1ccccc1`: the EC50 is over 200 µM and the IC50 was found to be 67.6 µM. The corresponding values for `CCSC(=O)n1nc(Cl)c2cc([N+](=O)[O-])ccc21` are over 200 µM and over 200 µM.

For the compound `COc1ccc(SSc2ccc(OC)cc2C(=O)O)c(C(=O)O)c1`, the EC50 was over 200 µM and the IC50 is over 200 µM. For `O=S(=O)(O)c1cc(N=[N+]([O-])c2cc(S(=O)(=O)O)c3ccccc3c2)cc2ccccc12`, the EC50 was over 200 µM and the IC50 was 93.3 µM.
